Entries after “also recorded” stand apart in the source; their conditions may differ. Like-named read-outs stand apart in the source and are kept apart here.
Legend:
Format in all cases: in vivo, human
[1] = Phase I ascending single oral dose pharmacokinetics in healthy male subjects; conditions: for half-life / Tmax: male, human, plasma
Experimental: The study was a Phase I, randomised, double-blind, placebo-controlled, ascending single oral dose, safety, tolerability, pharmacokinetic (PK) and pharmacodynamics (PD) study of IP2015 in healthy male subjects.
Each subject received one oral dose of IP2015 or matched placebo. The starting dose of IP2015 was 0.01 mg in Cohort 1. The dose level was to be escalated to a maximum of 0.05 mg in Cohort 2 and a maximum of 0.2 mg in Cohort 3. The doses in the remaining five cohorts were to be determined based on the dose escalation criteria. In every cohort, no more than 2 subjects were dosed on the first dosing day (1 active; 1 placebo) such that no more than 1 subject received an active IP2015 dose for the first time at each dose level.
The IP2015 or matched placebo was administered once on the morning of Day 1 as an oral solution in the fasted state. The dose was taken with 240 ml of water at room temperature. Subjects/participants were fasted overnight prior to dosing until 4 hours postdose. Water was allowed ad libitum except for 1 hour before and 1 hour after dosing.
The doses used in each cohort were as follows: • Cohort 1-0.01 mg • Cohort 2-0.05 mg • Cohort 3-0.2 mg • Cohort 4-0.6 mg • Cohort 5-1.8 mg • Cohort 6-5.4 mg • Cohort 7-16.2 mg • Cohort 8-10 mg
The study also evaluated plasma PK concentrations and parameters including but not limited to: area under the plasma concentration vs time curve (AUC), from time zero to the last quantifiable concentration (AUC0-t), AUC from zero to infinity (AUC0-∞), observed maximum plasma concentration (Cmax), time to reach maximum plasma concentration (tmax) and terminal elimination half-life (T½) in healthy male subjects. Blood samples for the determination of plasma concentrations of IP2015 were collected at predose, and 0.25, 0.5, 1, 1.5, 2, 3, 4, 6, 8, 12, 16, 24, 36 and 48 hours postdose.
(§1) Safety parameters were listed and summarised using descriptive statistics. Pharmacokinetic parameter estimates were calculated using noncompartmental methods. Pharmacokinetic data were listed for each subject/patient and summarised by descriptive statistics.
Dose proportionality was analysed for Part A with a linear regression model using the logarithm of a PK parameter as responsible variable and the logarithm of the dose as the independent variable. The linear regression model can be expressed as: […]
The above model was applied to the following PK parameters; AUC0-t, AUC0-∞ and Cmax. Based on the linear regression model, the dose proportionality coefficient (slope) and its two-sided 90% confidence interval (CI) were estimated. Dose proportionality was declared if the 90% CI for the slope was completely contained in the following range 16: 1+log (0.5)/log (r), 1+log (2)/log (r), where r is the high dose/low dose.

male patients with ED = test: Phase II single oral dose safety in male patients with ED
Experimental: The study was an exploratory Phase II, randomised, placebo-controlled, double-blind, crossover study, investigating the effects of a single oral dose of IP2015 on erectile function in males with ED. A dose level of 10 mg was selected. Patients were enrolled into two cohorts. Both cohorts participated in two periods (Period 1 and Period 2) and received a single dose of IP2015 and a single dose of placebo.
The study evaluated the efficacy data from RigiScan assessments in male patients with ED and the clinical safety data from AE reporting, 12-lead ECGs, vital signs, physical examinations and clinical laboratory evaluations in male patients with ED.
as §1

[2] = tested on: male subjects with erectile dysfunction (ED); test: Treatment-emergent adverse events after repeat single oral doses in male subjects with ED
Experimental: Treatment-related adverse events are adverse events which could either be possibly or probably related to the treatment.
130 subjects were divided into 3 groups upon which the study was conducted in parallel. Each subject was dosed on four occasions with either 5 mg IP2015, 10 mg IP2015 or matched placebo. In each group, subjects were randomised evenly to each of the three study treatments and received the same treatment at each visit.
There were three potential study treatments of 5 mg IP2015, 10 mg IP2015 or matched placebo. In each group, subjects were randomised evenly to each of the three study treatments and received the same treatment on each visit. IP2015 or matched placebo was administered once in the morning of Week 1 (Day 1), Week 2, Week 3, and Week 4 as an oral solution in the fasted state. The dose was taken with 240 ml of water at room temperature. Subjects had fasted 2 hours prior to dosing until 4 hours postdose. Water was allowed ad libitum except for 1 hour before and 1 hour after dosing.
Efficacy was assessed through the International Index of Erectile Function (IIEF)-15 questionnaire. The change from baseline in responses to questions of the IIEF-15 questionnaire, including questions regarding erectile function, orgasmic function, sexual desire, intercourse satisfaction and overall satisfaction domain scores, was determined at different time points of the study. RigiScan assessments during the stimulus assessment, and sperm count and motility by semen sample collection was used for efficacy evaluation. Safety was assessed through AE reporting, 12-lead ECG, vital signs, physical examinations and clinical laboratory evaluations. Pharmacokinetics was assessed by blood sampling.

[3] = 0.2 to 16.2 mg single dose range
[4] = overall, crossover 10 mg IP2015 and placebo
[5] = overall, crossover 10 mg IP2015 and placebo, 12 patients

## COc1cc2ccc(OC3CC4CCC(C3)N4)cc2oc1=O (stereo not drawn) [IP2015, 7-[(8-azabicyclo[3.2.1]octan-3-yl)oxy]-3-methoxy-chromen-2-one]
[1]; [3]
  increase of systemic exposure with dose based on AUC0-t: greater than dose-proportional manner
  increase of systemic exposure with dose based on AUC0-∞ and Cmax: slightly more than dose-proportional manner
[1]; healthy males, 0.2 mg
  subjects with plasma concentrations below the LLOQ: 3/7
[1]; healthy males, single oral 0.01 mg and 0.05 mg
  plasma concentrations of IP2015: below the LLOQ for all subjects
[1]; oral, healthy males, 0.6 mg, calculated for 1/6 subjects, read-out: mean t½ (converted)
  half-life: 14.5 h
[1]; oral, healthy males, 1.8 mg, calculated for 3/6 subjects, read-out: mean t½ (converted)
  half-life: 16.1 h
[1]; oral, healthy males, across all dose levels, read-out: tmax range
  Tmax: 1 to 6 h
[1]; oral, healthy males, range of means across 5.4 mg to 16.2 mg doses, read-out: mean T½
  half-life: 23.1 to 26.3 h
[1]; healthy males, range of medians across single oral doses 0.2-16.2 mg, read-out: median tmax
  Tmax: 2.25 to 5 h
Male patients with ED; 10 mg, 8 hours postdose
  heart rate, increase from baseline: 14.56 bpm
Male patients with ED; male patients with ED, 10 mg
  RR, PR, QRS, QT and QTcF intervals, IP2015 versus placebo: no significant treatment-related differences
  haematology, serum biochemistry or urinalysis data: no significant treatment- or dose-related trends
  standing and supine pulse rate: apparent treatment-related increase
  systolic blood pressure, diastolic blood pressure and oral temperature, IP2015 versus placebo: no significant treatment-related differences
Male patients with ED; [4]
  deaths or SAEs: No deaths or SAEs were reported
  severity of TEAEs: All events were mild in severity
Male patients with ED; [5]
  number of TEAEs: 19
  patients experiencing TEAEs: 9 (75.0%)
[2]; 5 mg, N = 42
  Any TEAE, number of events: 61
  Any TEAE, subjects (%): 32 (76.2%)
  Dizziness, number of events: 3
  Dizziness, subjects (%): 3 (7.1%)
  Headache, number of events: 15
  Headache, subjects (%): 11 (26.2%)
  Mild TEAE, number of events: 56
  Mild TEAE, subjects (%): 29 (69.0%)
  Moderate TEAE, number of events: 5
  Moderate TEAE, subjects (%): 3 (7.1%)
  Nausea, number of events: 1
  Nausea, subjects (%): 1 (2.4%)
  Related TEAE, number of events: 19
  Related TEAE, subjects (%): 10 (23.8%)
  Severe TEAE: 0
[2]; 10 mg versus 5 mg
  TEAEs, high dose compared to low dose: slightly increased in the high dose compared to the low dose
[2]; 10 mg, N = 43
  Any TEAE, number of events: 141
  Any TEAE, subjects (%): 34 (79.1%)
  Dizziness, number of events: 15
  Dizziness, subjects (%): 12 (27.9%)
  Headache, number of events: 27
  Headache, subjects (%): 16 (37.2%)
  Mild TEAE, number of events: 132
  Mild TEAE, subjects (%): 33 (76.7%)
  Moderate TEAE, number of events: 9
  Moderate TEAE, subjects (%): 7 (16.3%)
  Nausea, number of events: 15
  Nausea, subjects (%): 8 (18.6%)
  Related TEAE, number of events: 84
  Related TEAE, subjects (%): 23 (53.5%)
  Severe TEAE: 0
[2]; any of the doses (5 mg, 10 mg)
  severe side effects: No severe side effects were observed; also recorded: No severe TEAEs were present
[2]; low-dose (5 mg)
  treatment-emergent adverse effects versus placebo group: comparable to the placebo group
